The source of these data is patent US20160185797A1, “ALKYNYL ALCOHOLS AND METHODS OF USE” (Genentech, Inc., priority 2013, published 2016).

SMILES strings stand for the structures.

For assay [1], the system named is REL-A (p65) nuclear translocation in HeLa cells. The assay can be described thus: REL-A (p65) nuclear translocation assay in HeLa cells, TNF-α stimulated (classical NF-kB signaling), high content imaging. Type of assay: cell-based. The settings on record: Homo sapiens, HeLa, compound 4.5 h, then 10 ng/mL TNF-α for 30 minutes, read-out: REL-A HeLa Transloc Assay (IC50). How it is done: (§1) Several assays were developed to profile the cellular activities of NIK inhibitors.
(§2) (2) A second set of cell assay are used to define the selectivity of NIK inhibitors toward inhibition of classical vs. non-classical NF-kB signaling and rely on quantification of the nuclear translocation of p52 (NF-kB2) and REL-A (p65) using high content cellular imaging. For the p52 (non-classical NF-kB signaling) nuclear translocation assay, HeLa cells are treated with different concentrations of compounds (0.2% DMSO final) in medium containing 10% fetal bovine serum and then stimulated with 100 ng/mL of an anti-lymphotoxin beta receptor antibody (R&D Systems) for 5 hours. In the REL-A nuclear translocation assay, HeLa cells are incubated with compounds (0.2% DMSO final) for 4.5 hours in medium containing 10% fetal bovine serum before stimulating them with 10 ng/mL tumor necrosis factor (TNF)-α (R&D Systems) for 30 minutes. Cells are fixed with 4% paraformaldehyde, permeabilized by adding 0.1% Triton X-100 in phosphate buffered saline, and then are incubated with either 2 ug/mL anti-p52 antibody (Millipore) or 400 ng/mL anti-REL-A (p65) antibody (Santa Cruz Biotechnology). Finally, the cells are incubated with an Alexa488-labeled secondary antibody (Invitrogen) and DRAQ5 DNA stain (Biostatus). Imaging is carried out using an Opera reader (Perkin Elmer) and data are analyzed with the aid of Acapella software (Perkin Elmer). The p52 or REL-Atranslocation into the nucleus is quantified by the ratio of the nuclear to cytoplasmic signal intensity. […] The compounds in listed in Table 1 have the corresponding inhibitory value (IC50 in micromolar) for NIK p52 Translocation Assay as set forth in Table 2.
(§3) The compounds in listed in Table 1 have the corresponding inhibitory values (IC50 in micromolar) for the Translocation Assays as set forth in Table 2.

Assay [2] deals with T1, nuclear factor-kappa B (NF-kB)-inducing kinase (NIK) (Homo sapiens, UniProt Q99558).
T1 construct: made in house; host or cells: baculovirus-infected insect cells
Kind of assay: NIK enzyme inhibition assay (Transcreener ADP fluorescence polarization, NIK ADP-FP). Format: biochemical.

In assay [3] the test system is p52 (NF-kB2) nuclear translocation in HeLa cells. Kind of assay: p52 (NF-kB2) nuclear translocation assay in HeLa cells, anti-lymphotoxin beta receptor antibody stimulated (non-classical NF-kB signaling), high content imaging. Type of assay: cell-based. As to conditions: Homo sapiens, 100 ng/mL anti-lymphotoxin beta receptor antibody for 5 hours, read-out: p52 HeLa Transloc Assay (IC50). How it is done: as §1, §2, §3

T1 sequence (Q99558 whole entry): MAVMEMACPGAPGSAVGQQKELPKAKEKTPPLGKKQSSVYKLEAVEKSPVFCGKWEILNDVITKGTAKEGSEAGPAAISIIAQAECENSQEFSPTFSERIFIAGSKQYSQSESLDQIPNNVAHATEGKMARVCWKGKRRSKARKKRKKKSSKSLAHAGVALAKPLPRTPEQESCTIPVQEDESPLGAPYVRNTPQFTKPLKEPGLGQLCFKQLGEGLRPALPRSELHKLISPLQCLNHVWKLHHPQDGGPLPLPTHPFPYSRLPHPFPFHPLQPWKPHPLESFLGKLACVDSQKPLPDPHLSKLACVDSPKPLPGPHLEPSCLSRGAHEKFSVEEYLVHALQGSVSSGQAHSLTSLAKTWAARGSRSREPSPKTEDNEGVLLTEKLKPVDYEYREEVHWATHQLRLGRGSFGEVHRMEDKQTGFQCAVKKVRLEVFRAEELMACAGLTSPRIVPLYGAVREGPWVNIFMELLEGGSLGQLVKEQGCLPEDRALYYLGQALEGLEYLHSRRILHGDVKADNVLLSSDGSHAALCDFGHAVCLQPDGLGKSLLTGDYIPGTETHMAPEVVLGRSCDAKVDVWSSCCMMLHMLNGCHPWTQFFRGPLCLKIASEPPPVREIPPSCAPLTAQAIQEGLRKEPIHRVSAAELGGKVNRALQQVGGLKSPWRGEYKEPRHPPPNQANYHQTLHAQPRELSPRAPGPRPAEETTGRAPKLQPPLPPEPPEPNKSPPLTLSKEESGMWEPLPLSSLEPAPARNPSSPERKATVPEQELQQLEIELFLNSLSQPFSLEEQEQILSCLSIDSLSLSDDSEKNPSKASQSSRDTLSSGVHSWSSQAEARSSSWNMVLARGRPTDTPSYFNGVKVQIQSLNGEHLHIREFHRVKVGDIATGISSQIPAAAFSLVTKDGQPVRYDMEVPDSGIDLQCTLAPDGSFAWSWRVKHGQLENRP

Consider `CN1CC[C@@](O)(C#Cc2cccc(-c3nc(C(N)=O)cc(N4CCOCC4)n3)c2)C1=O` [Example 2, 2-[3-[2-[(3R)-3-hydroxy-1-methyl-2-oxo-pyrrolidin-3-yl]ethynyl]phenyl]-6-morpholino-pyrimidine-4-carboxamide], for which the IC50 is more than 20000 nM in assay [1] and 101 nM in assay [3]. Also, affinity in assay [2] was put at a Ki of 1.73 nM.
For `CN1CC[C@@](O)(C#Cc2cccc(-c3nc(C(N)=O)c4ccccc4n3)c2)C1=O` [Example 4, 2-[3-[2-[(3R)-3-hydroxy-1-methyl-2-oxo-pyrrolidin-3-yl]ethynyl]phenyl]quinazoline-4-carboxamide], the IC50 in assay [1] is more than 20000 nM; in assay [3], 31.9 nM. Also, affinity in assay [2] was put at a Ki of 0.05 nM.
Take `CN1CC[C@@](O)(C#Cc2cccc(-c3nc(C(N)=O)cc(N4CCCC4)n3)c2)C1=O` [Example 5, 2-[3-[2-[(3R)-3-hydroxy-1-methyl-2-oxo-pyrrolidin-3-yl]ethynyl]phenyl]-6-pyrrolidin-1-yl-pyrimidine-4-carboxamide]: the IC50 in assay [1] was more than 20000 nM; in assay [3] it was 122 nM. This compound came in with a Ki in assay [2] of 0.8 nM.
The corresponding values for `CN1CC[C@@](O)(C#Cc2cccc(-c3nc(C(N)=O)cc(N(C)C)n3)c2)C1=O` [Example 6, 6-(dimethylamino)-2-[3-[2-[(3R)-3-hydroxy-1-methyl-2-oxo-pyrrolidin-3-yl]ethynyl]phenyl] pyrimidine-4-carboxamide] are more than 20000 nM, 108 nM and 0.83 nM.
The corresponding values for `CN1CC[C@@](O)(C#Cc2cccc(-c3nc(C(N)=O)cc(N4CC(F)(F)C4)n3)c2)C1=O` [Example 8, 6-(3,3-difluoroazetidin-1-yl)-2-[3-[2-[(3R)-3-hydroxy-1-methyl-2-oxo-pyrrolidin-3-yl]ethynyl]phenyl]pyrimidine-4-carboxamide] are more than 20000 nM, 211 nM and 2.35 nM.
The corresponding values for `CN1CC[C@@](O)(C#Cc2cccc(-c3nc(NC4CC4)cc(C(N)=O)n3)c2)C1=O` [Example 9, 6-(cyclopropylamino)-2-[3-[2-[(3R)-3-hydroxy-1-methyl-2-oxo-pyrrolidin-3-yl]ethynyl]phenyl] pyrimidine-4-carboxamide] are more than 20000 nM, 270 nM and 1.24 nM.
For `COCCN(C)c1cc(C(N)=O)nc(-c2cccc(C#C[C@]3(O)CCN(C)C3=O)c2)n1` [Example 10, 2-[3-[2-[(3R)-3-hydroxy-1-methyl-2-oxo-pyrrolidin-3-yl]ethynyl]phenyl]-6-[2-methoxyethyl(methyl)amino] pyrimidine-4-carboxamide], the figures for the half-maximal inhibitory concentration (IC50) in assay [1] and in assay [3] were more than 20000 nM and 266 nM, respectively. Besides, in assay [2], the Ki was 1.17 nM.
The corresponding values for `CN1CC[C@@](O)(C#Cc2cccc(-c3nc(C(N)=O)cc(N4CC5(COC5)C4)n3)c2)C1=O` [Example 11, 2-[3-[2-[(3R)-3-hydroxy-1-methyl-2-oxo-pyrrolidin-3-yl]ethynyl]phenyl]-6-(6-oxa-2-azaspiro[3.3]heptan-2-yl) pyrimidine-4-carboxamide] are more than 20000 nM, 2500 nM and 4.65 nM.
The corresponding values for `CNc1cc(C(N)=O)nc(-c2cccc(C#C[C@]3(O)CCN(C)C3=O)c2)n1` [Example 12, 2-[3-[2-[(3R)-3-hydroxy-1-methyl-2-oxo-pyrrolidin-3-yl]ethynyl]phenyl]-6-(methylamino)pyrimidine-4-carboxamide] are more than 20000 nM, 236 nM and 0.33 nM.
The corresponding values for `Cc1cc(C(N)=O)nc(-c2cccc(C#C[C@]3(O)CCN(C)C3=O)c2)n1` [Example 13, 2-[3-[2-[(3R)-3-hydroxy-1-methyl-2-oxo-pyrrolidin-3-yl]ethynyl]phenyl]-6-methyl-pyrimidine-4-carboxamide] are more than 20000 nM, 382 nM and 0.48 nM.
